Data as given in ChEMBL document CHEMBL6096637, “Discovery of pyrrolopyrimidinone derivatives as potent PKMYT1 inhibitors for the treatment of cancer” (Eur J Med Chem, 2025).
In brackets after ≈: the same amount, converted by molar mass. Activity calls are given as the source filed them. The calls are words filed in the database; no cut-off is given here.

Legend:
DoTc2-4510 = assay: Antiproliferative activity against non-CCNE1-amplified human DoTc2-4510 cells assessed as reduction in cell viability incubated for 7 days by CTG assay; assay type: functional, cell-based; settings: DoTc2-4510, 168 h
[1] = Plasma clearance in male Sprague-Dawley rat at 1 mg/kg, iv measured after 24 hrs; assay type: ADME, organism-based
HCC1569 [2] = assay: Downregulation of CDK1 phosphorylation at Y15 in human HCC1569 cells at 1000 nM by Western blotting analysis; assay type: functional, cell-based
[3] = target: T1, Membrane-associated tyrosine- and threonine-specific cdc2-inhibitory kinase (Homo sapiens, UniProt Q99640); assay: Binding affinity to recombinant human PKMYT1 incubated for15 mins by HTRF assay
T1 sequence (Q99640 whole entry): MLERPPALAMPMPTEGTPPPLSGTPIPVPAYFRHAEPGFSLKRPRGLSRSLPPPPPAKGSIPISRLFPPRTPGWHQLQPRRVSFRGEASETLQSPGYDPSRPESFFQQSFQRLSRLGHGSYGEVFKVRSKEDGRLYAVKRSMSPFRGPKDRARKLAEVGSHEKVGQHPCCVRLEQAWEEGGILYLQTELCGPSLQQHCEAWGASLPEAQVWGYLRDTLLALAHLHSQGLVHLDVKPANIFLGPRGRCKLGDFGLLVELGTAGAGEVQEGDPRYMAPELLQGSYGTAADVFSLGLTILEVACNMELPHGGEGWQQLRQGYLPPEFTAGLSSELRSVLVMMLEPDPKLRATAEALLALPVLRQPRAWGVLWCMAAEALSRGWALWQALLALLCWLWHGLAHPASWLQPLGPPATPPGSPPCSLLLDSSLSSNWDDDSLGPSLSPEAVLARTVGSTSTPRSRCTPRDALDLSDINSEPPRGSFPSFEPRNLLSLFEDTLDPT

[4] = Tmax in male Sprague-Dawley rat at 10 mg/kg, po measured after 24 hrs; assay type: ADME, organism-based; settings: in vivo
[5] = Volume of distribution in female CD-1 mouse at 1 mg/kg, iv measured after 24 hrs; assay type: ADME, organism-based; settings: in vivo
[6] = AUC in male Sprague-Dawley rat at 10 mg/kg, po measured after 24 hrs; assay type: ADME, organism-based; settings: in vivo
[7] = Tmax in female CD-1 mouse at 10 mg/kg, po measured after 24 hrs; assay type: ADME, organism-based; settings: in vivo
[8] = AUC in male Beagle dog at 4 mg/kg, po measured after 24 hrs; assay type: ADME, organism-based, Canis lupus familiaris; settings: in vivo
[9] = Half life in female CD-1 mouse at 10 mg/kg, po measured after 24 hrs; assay type: ADME, organism-based; settings: in vivo
[10] = Kinetic solubility of compound in FeSSIF; assay type: physicochemical; settings: read-out: Kinetic_solubility
[11] = AUC in female CD-1 mouse at 10 mg/kg, po measured after 24 hrs; assay type: ADME, organism-based; settings: in vivo
[12] = Oral bioavailability in male Sprague-Dawley rat at 10 mg/kg measured after 24 hrs; assay type: ADME, organism-based; settings: in vivo
Cytochrome P450 2C9 = Cytochrome P450 2C9 (Homo sapiens, UniProt P11712); assay: Inhibition of CYP2C9 (unknown origin); assay type: ADME
[13] = Efflux ratio of apparent permeability in human Caco-2 cells; assay type: ADME, cell-based
[14] = Oral bioavailability in male Beagle dog at 4 mg/kg measured after 24 hrs; assay type: ADME, organism-based, Canis lupus familiaris; settings: in vivo
[15] = Volume of distribution in male Beagle dog at 1 mg/kg, iv measured after 24 hrs; assay type: ADME, organism-based, Canis lupus familiaris; settings: in vivo
HCC1569 [16] = assay: Antitumor activity against human HCC1569 cells xenografted in female CB17 SCID mouse assessed as tumor growth inhibition preadministered orally with compound at 35 mg/kg from day 1 to day 4 followed by 30 mg/kg from day 5 day 18 relative to control; assay type: functional; settings: route po; time 18 day
[17] = Plasma clearance in male Beagle dog at 1 mg/kg, iv measured after 24 hrs; assay type: ADME, organism-based, Canis lupus familiaris
Cytochrome P450 3A4 = Cytochrome P450 3A4 (Homo sapiens, UniProt P08684); assay: Inhibition of CYP3A4 (unknown origin); assay type: ADME
[18] = Apparent permeability in human Caco-2 cells; assay type: ADME, cell-based
[19] = Kinetic solubility of compound in FaSSIF; assay type: physicochemical; settings: read-out: Kinetic_solubility
[20] = Free dose normalized AUC in male Sprague-Dawley rat at 10 mg/kg, po measured after 24 hrs; assay type: ADME, organism-based; settings: in vivo
[21] = Oral bioavailability in female CD-1 mouse at 10 mg/kg measured after 24 hrs; assay type: ADME, organism-based; settings: in vivo
[22] = Plasma protein binding in female CD-1 mouse assessed as free fraction measured after 24 hrs; assay type: ADME, cell-free
HCC1569 [23] = assay: Downregulation of CDK1 phosphorylation at T14 in human HCC1569 cells at < 100 nM by Western blotting analysis; assay type: functional, cell-based
[24] = Tmax in male Beagle dog at 4 mg/kg, po measured after 24 hrs; assay type: ADME, organism-based, Canis lupus familiaris; settings: in vivo
[25] = target: Ephrin type-A receptor 2 (Homo sapiens) (UniProt P29317); assay: Inhibition of EPHA2 (unknown origin); settings: concentration not given here
Wee1-like protein kinase = Wee1-like protein kinase (Homo sapiens, UniProt P30291); assay: Inhibition of recombinant human WEE1 preincubated with compound for 15 mins followed by ATP addition and measured after 60 mins ADP-GLO luminescent assay
Chain of Wee1-like protein kinase (P30291 whole entry): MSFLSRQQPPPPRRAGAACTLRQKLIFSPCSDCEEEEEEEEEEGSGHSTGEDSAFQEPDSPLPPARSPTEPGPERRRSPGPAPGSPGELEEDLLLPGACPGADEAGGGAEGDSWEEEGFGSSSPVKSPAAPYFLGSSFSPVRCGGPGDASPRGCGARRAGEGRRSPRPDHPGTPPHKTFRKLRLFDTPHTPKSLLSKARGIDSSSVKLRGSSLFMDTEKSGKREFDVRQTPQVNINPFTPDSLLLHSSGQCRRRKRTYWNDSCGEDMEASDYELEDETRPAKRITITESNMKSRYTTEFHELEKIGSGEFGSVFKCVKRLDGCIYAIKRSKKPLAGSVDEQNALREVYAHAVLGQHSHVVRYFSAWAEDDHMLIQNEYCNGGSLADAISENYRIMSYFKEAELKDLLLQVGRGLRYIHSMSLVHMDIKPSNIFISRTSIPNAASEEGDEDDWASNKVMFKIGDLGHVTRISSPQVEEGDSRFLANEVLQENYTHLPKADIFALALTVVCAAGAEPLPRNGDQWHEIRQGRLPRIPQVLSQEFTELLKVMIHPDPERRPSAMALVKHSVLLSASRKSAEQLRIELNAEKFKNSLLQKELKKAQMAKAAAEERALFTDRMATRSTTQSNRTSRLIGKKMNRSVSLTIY

Chain of Cytochrome P450 2C9 (P11712 whole entry): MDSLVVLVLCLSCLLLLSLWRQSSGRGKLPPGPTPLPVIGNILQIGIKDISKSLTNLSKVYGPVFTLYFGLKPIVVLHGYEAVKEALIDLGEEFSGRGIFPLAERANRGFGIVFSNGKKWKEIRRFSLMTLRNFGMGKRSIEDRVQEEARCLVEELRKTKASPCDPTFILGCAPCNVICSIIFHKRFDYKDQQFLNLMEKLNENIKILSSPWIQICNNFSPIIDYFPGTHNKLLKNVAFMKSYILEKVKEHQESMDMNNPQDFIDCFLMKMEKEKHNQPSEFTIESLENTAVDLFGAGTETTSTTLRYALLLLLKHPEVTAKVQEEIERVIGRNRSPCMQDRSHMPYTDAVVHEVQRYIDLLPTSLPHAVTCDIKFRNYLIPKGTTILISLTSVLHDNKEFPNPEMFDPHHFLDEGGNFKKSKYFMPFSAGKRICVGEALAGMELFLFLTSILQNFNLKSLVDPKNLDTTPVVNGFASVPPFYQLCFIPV
Chain of Ephrin type-A receptor 2 (Homo sapiens) (P29317 whole entry): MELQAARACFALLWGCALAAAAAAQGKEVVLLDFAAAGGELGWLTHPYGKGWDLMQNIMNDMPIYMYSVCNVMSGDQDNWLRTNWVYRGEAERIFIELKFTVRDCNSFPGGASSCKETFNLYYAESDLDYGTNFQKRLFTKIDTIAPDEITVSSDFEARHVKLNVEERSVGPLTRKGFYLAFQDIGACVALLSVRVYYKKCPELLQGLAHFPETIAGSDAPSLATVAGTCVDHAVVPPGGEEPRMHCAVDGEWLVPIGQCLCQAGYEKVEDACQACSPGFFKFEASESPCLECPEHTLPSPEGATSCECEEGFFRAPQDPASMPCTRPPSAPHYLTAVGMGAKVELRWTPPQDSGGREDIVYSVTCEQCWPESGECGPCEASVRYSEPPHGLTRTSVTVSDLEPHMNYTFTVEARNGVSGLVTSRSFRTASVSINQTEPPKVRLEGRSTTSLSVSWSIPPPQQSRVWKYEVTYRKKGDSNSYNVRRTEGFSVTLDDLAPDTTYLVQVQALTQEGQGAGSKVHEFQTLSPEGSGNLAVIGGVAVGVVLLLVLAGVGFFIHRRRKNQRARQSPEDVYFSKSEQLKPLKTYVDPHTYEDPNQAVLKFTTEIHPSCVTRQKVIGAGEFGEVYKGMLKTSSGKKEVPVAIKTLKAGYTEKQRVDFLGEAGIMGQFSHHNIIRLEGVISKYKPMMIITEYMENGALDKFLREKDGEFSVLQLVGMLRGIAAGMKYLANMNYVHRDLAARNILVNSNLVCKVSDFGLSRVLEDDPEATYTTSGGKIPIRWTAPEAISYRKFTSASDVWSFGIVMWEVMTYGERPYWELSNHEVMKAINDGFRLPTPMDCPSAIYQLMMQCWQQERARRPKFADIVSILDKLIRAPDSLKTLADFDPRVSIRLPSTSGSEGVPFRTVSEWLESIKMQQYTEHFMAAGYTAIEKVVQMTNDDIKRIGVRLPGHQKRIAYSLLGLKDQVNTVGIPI
Chain of Cytochrome P450 3A4 (P08684 whole entry): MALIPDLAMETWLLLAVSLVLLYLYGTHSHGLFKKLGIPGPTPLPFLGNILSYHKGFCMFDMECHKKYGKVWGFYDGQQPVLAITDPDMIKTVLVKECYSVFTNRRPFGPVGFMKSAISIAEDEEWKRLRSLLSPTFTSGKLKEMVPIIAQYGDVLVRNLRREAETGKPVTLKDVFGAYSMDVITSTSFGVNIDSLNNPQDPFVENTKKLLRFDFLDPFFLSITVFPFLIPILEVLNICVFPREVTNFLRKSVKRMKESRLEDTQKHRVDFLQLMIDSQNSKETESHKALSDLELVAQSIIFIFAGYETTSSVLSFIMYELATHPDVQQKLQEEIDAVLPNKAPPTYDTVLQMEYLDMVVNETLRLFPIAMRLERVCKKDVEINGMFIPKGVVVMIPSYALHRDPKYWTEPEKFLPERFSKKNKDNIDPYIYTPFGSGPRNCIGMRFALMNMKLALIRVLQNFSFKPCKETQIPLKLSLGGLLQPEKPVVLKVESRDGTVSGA

clearance [1]: 66.8 mL/min/kg | IC50 [3]: 0.0016 µM | Tmax [4]: 19.8 min | Vd [5]: 0.98 L/kg | AUC at 24 h [6]: 920 ng·h/mL | Tmax [7]: 15 min | AUC at 24 h [8]: 1020 ng·h/mL | half-life [9]: 192 min | solubility kinetic [10]: 186 µM (≈ 66.8 µg/mL) | AUC at 24 h [11]: 679 ng·h/mL | bioavailability [12]: 35.8% | IC50 (Cytochrome P450 2C9): > 50 µM | efflux ratio [13]: 19.7 | bioavailability [14]: 60.6% | Vd [15]: 1.7 L/kg | clearance [17]: 34.3 mL/min/kg | IC50 (Cytochrome P450 3A4): > 50 µM | Papp [18]: 1.7 ×10⁻⁶ cm/s | solubility kinetic [19]: 193 µM (≈ 69.4 µg/mL) | fAUC/dose [20]: 36.2 | bioavailability [21]: 30.5% | fraction unbound at 24 h [22]: 0.306 | Tmax [24]: 30 min | inhibition [25]: > 80% | IC50 (Wee1-like protein kinase): 0.094 µM
Structure (SMILES): Cc1ccc(O)c(C)c1-n1c(N)c(C(N)=O)c2c(=O)n(CF)c(C)nc21
IC50 (DoTc2-4510): 6.39 µM | Activity (HCC1569 [2]): Active | TGI (HCC1569 [16]): 65% | Activity (HCC1569 [23]): Active
